The record followed here is patent US12233069B2, “Oral solid tablet comprising Bruton's Tyrosine Kinase inhibitor and preparation method therefor” (BEIGENE SWITZERLAND GMBH, priority 2019, dated 2025).

Series [1] is described as follows: Solubility / biopharmaceutical classification system class. The format is physicochemical.
Series [2] is described as follows: Hygroscopicity of the active pharmaceutical ingredient. The format is physicochemical.

Entries after “also recorded” stand apart in the source; their conditions may differ.

Regarding `C=CC(=O)N1CCC([C@@H]2CCNc3c(C(N)=O)c(-c4ccc(Oc5ccccc5)cc4)nn32)CC1` [Zanubrutinib, (S)-7-[4-(1-acryloylpiperidine)]-2-(4-phenoxyphenyl)-4,5,6,7-tetrahydropyrazolo[1,5-a] pyrimidine-3-carboxamide], in series [1], the “biopharmaceutical classification system class” value is “class II (low solubility, and high permeability)”. Also, the solubility entry in series [1] (active pharmaceutical ingredient) was “poor solubility; also recorded: pH-dependent solubility”. Besides, the hygroscopicity result in series [2] is “slightly hygroscopic”.
